# Data as given in patent US6608082B1, “Treatment of erectile dysfunction using isoquinoline compound melanocortin receptor ligands” (Lion Bioscience AG, priority 1998, dated 2003).
# Like-named read-outs stand apart in the source and are kept apart here.
# Experiments:
# MCR-5 = molecular target: T1, MCR-5 (Homo sapiens, UniProt P33032); test: cAMP assay for melanocortin receptors, HEK 293 cells expressing MCR-5; format: cell-based; settings: read-out: MC-5 EC50 (cAMP)
# T1 construct: expressed in transfected cells; host or cells: HEK 293
# T1 sequence (P33032 whole entry): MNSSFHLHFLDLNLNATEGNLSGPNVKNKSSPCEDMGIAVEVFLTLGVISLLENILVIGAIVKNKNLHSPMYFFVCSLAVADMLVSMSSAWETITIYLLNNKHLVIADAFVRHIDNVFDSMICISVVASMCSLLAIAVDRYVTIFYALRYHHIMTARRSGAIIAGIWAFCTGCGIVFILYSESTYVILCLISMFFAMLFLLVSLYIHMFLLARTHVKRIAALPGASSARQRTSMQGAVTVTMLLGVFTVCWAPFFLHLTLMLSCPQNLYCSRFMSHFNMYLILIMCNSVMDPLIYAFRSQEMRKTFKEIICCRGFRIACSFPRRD
# Experimental: HEK 293 cells expressing MCR-1, MCR-3, MCR-4 and MCR-5 were used (see Example II). Cells were plated at 20,000 cells per well in a 96-well plate coated with collagen. The next day, cells were pretreated with 75 μl of 0.4 mM 3-isobutyl-1-methylxanthine (IBMX) in low serum medium containing DMEM, 25 mM HEPES, non-essential amino acids, vitamins, 100 units/ml penicillin, 100 μg/ml streptomycin and 0.1% COSMIC CALF SERUM. IBMX is an inhibitor of cAMP phosphodiesterase. The pretreatment was carried out for 10 min at 37° C.
# Following pretreatment, 25 μl of diluted isoquinoline compound was added to the wells, and cells were incubated for 15 min at 37° C. Cells were lysed by adding 25 μl saponin lysis buffer and incubating 2 to 5 min. Plates were covered and stored at −20° C.
# cAMP concentration was determined by ELISA. Briefly, 96 well ELISA plates were coated with goat anti-cAMP antibody in PBS for 12 to 72 hr at 4° C. 50 μl of sample was mixed with 50 μl of cAMP ELISA buffer containing 1% bovine serum albumin, 10% heat-inactivated donor horse serum, 1% normal mouse serum and 0.05% TWEEN-20 in PBS, and the diluted sample was added to the coated ELISA plate. Standards of known concentrations of cAMP were added to separate wells. 25 μl of 16 ng/ml cAMP-conjugated horse radish peroxidase (HRP) (cAMP-HRP) was added to each well, and the plates were […] at room temperature. Plates were washed and the binding of cAMP-HRP was detected with 3,3′,5,5′-tetramethylbenzidine (TMB) and hydrogen peroxide using standard immunoassay procedures.
# Various isoquinoline compounds were tested for their ability to activate MC receptor by measuring cAMP as described in Example III.
# MCR-4 = molecular target: T2, MCR-4 (Homo sapiens, UniProt P32245); test: Melanocortin receptor binding assay, competition with 125I-HP 467, HEK 293 cells expressing hMCR-4; settings: read-out: MC-4 IC50
# T2 construct: expressed in transfected cells; host or cells: HEK 293
# T2 sequence (P32245 whole entry): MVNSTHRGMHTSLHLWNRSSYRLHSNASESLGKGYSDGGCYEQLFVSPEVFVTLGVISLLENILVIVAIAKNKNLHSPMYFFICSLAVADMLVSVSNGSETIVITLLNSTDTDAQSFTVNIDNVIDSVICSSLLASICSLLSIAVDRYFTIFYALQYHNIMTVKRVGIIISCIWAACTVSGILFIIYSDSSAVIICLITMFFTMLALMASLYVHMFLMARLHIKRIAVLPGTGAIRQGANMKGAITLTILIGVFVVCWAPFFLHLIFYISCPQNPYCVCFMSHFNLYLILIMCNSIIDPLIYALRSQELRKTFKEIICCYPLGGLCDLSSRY
# Outline: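 Intact-cell competition binding, 2.5 hr at 37 °C, in PBS/10% calf serum/1 mM CaCl2; hMCR-4 cells at 4×10^3 per tube, hMCR-1 cells at 2×10^4 per tube. Filtration on BSA/CaCl2-soaked GF/B, cold 50 mM Tris pH 7.4 washes, scintillation count.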
# [1] = test system: arachidonic acid induced dermal inflammation; test: Arachidonic acid induced dermal inflammation (ear thickness); format: in vivo, Female BALB/c mice; settings: for inflammation in response to arachadonic acid administration: mouse, in vivo; for reduction in the level of arachidonic acid-induced dermal inflammation: intraperitoneally, TRG 2409-2 or TRG 2409-14 100 or 300 μg/mouse, FIG. 5
# Experimental: Female BALB/c mice (17-22 g) were used and administered the test isoquinoline compounds or positive control compounds 30 to 60 min prior to topical application of arachidonic acid. Indomethacin and HP 228 were used as positive controls. Compounds were administered orally (p.o.) or intraperitoneally (i.p.). Initial ear thickness (left and right) was measured using spring loaded micro-calipers. Arachidonic acid was applied to mice anesthetized with a cocktail of ketamine/xylazine (7.0 mg/ml and 0.6 mg/ml, respectively) administered i.p. (300 μl/mouse). Utilizing a micro-pipette, 20 μl of arachidonic acid solution (100 mg/ml ethanol or acetone) was applied to the right ear (10 μl to inner and 10 μl to outer surfaces of […] for a total of 2 mg arachidonic acid per right ear), and 20 μl of vehicle (ethanol or acetone) was applied to the left ear. Mice were returned to their cages to recover. Mice were again anesthetized 50 min after arachidonic acid application and their ears measured.
# Dermal inflammation was determined by subtracting the difference of the vehicle treated left ear (L60−L0) from the difference of the arachidonic acid treated right ear (R60−R0). Ear thickness measurements were averaged for each group, and the responses in the vehicle treated control group (Cr; saline or PBS) were subtracted from the response noted in the isoquinoline compound treated group (Tr) to give the relative inflammatory response for each treatment group compared to the control group. The percent inhibition is defined by the equation: % inhibition=(Cr−Tr)/(Cr)×100.
# [2] = Body weight and food consumption after i.p. administration; format: in vivo, Sprague-Dawley rats; settings: for reducing body weight and food consumption: rat, in vivo; for food consumption / weight gain / body weight relative to control: rats, 5 mg/kg i.p.; for food consumption / weight gain: 18 hours after injection, FIG. 6; for body weight relative to control: at 9 hours as well as 18 hours, FIG. 7
# From the text: Adult male Sprague-Dawley rats (175-225 g) were used to assess the effect of isoquinoline compounds on food uptake and body weight. Baseline body weight and food consumption measurements were taken for 3 days prior to start of the study (Day 0). On Day −1, the food was taken away from the animals at 5:00 PM. The next morning (Day 0), body weight measurements were taken, and the animals were divided into treatment groups with 6 animals in each group. The treatment groups were saline control, HP 228 positive control and test isoquinoline compounds. Saline was administered i.p. at 1 ml/kg. HP 228 and test isoquinoline compounds were administered i.p. at 5 mg/kg. The injections were initiated at 2:00 PM on Day 0.
# Body weight and food consumption measurements were taken at 9 hr (Day 0; 11:00 PM) and at 18 hr (Day 1, 8:00 AM) after injection. At the end of the study, all evaluated parameters (9 and 18 hour body weight and food consumption) were analyzed by standard statistical methods. Significance (P<0.05) was determined by one-way ANOVA, ANOVA for repeated measures, or Student's t-test.
# The level of reduction was similar to that seen with HP 228.
# [3] = 100 μg/mouse administered intraperitoneally, FIG. 4
# [4] = TRG 2408 and TRG 2409 libraries, inhibition of 125I-HP 467 binding
# [5] = competition with 125I-HP 467, HEK 293 cells expressing MCR-4
compound,measurement,setting,value
CNC(CN)CN1Cc2ccccc2C(CNC2CCCCC2)C1c1ccc(O)cc1 (stereo not shown) [TRG 2405-156],EC50,MCR-5,> 50 µM
same,IC50,"MCR-4; TRG 2405 section, inhibition of binding of 125I-HP 467, HEK 293 cells expressing MCR-4",20.6 µM
CNC(CN)CCCCN1Cc2ccccc2C(CNC2CCCCC2)C1c1ccc(Cl)cc1Cl (stereo not shown) [TRG 2405-190],inhibition of arachidonic acid induced dermal inflammation,[1]; [3],inhibition of arachidonic acid induced dermal inflammation
same,inflammation in response to arachadonic acid administration,[1],reduced inflammation
same,reducing body weight and food consumption,[2],particularly effective at reducing body weight and food consumption
same,food consumption,[2],significant decrease
same,weight gain,[2],significant decrease
CNC(CN)CCCCN1Cc2ccccc2C(CNC2CCCCC2)C1c1ccc(C(F)(F)F)cc1 (stereo not shown) [TRG 2405-238],EC50,MCR-5,> 50 µM
CCNc1ccc(C2C(CNC3CCCCC3)c3ccccc3CN2CCCCC(CN)NC)cc1 (stereo not shown) [TRG 2405-239],EC50,MCR-5,> 50 µM
CNC(CN)CCCCN1Cc2ccccc2C(CNC2CCCCC2)C1c1ccc(-c2ccccc2)cc1 (stereo not shown) [TRG 2405-241],EC50,MCR-5,> 50 µM
same,inhibition of arachidonic acid induced dermal inflammation,[1]; [3],inhibition of arachidonic acid induced dermal inflammation
same,inhibition of arachidonic acid induced dermal inflammation,"[1]; administered intraperitoneally, TRG 2405-241 300 μg/mouse, HP 228 100 μg/mouse, FIG. 3",comparable to that seen with HP 228
same,inhibition of arachidonic acid induced dermal inflammation,"[1]; administered orally, TRG 2405-241 600 μg/mouse, indomethacin 1 mg/mouse, FIG. 2",comparable to that seen with indomethacin
same,inflammation in response to arachadonic acid administration,[1],reduced inflammation
same,reducing body weight and food consumption,[2],particularly effective at reducing body weight and food consumption
same,food consumption,[2],significant decrease
same,weight gain,[2],significant decrease
CNC(CN)CCCCN1Cc2ccccc2C(CNC2CCCCC2)C1c1ccc(Br)cc1 (stereo not shown) [TRG 2405-242],EC50,MCR-5,> 50 µM
CNC(CN)CCCCN1Cc2ccccc2C(CNC2CCCCC2)C1c1ccc(O)cc1 (stereo not shown) [TRG 2405-246],EC50,MCR-5,> 50 µM
CNC(CN)CCCCN1Cc2ccccc2C(CNC2CCCCC2)C1c1ccc(Oc2ccccc2)cc1 (stereo not shown) [TRG 2405-252],EC50,MCR-5,> 50 µM
same,inhibition of arachidonic acid induced dermal inflammation,[1]; [3],inhibition of arachidonic acid induced dermal inflammation
same,inflammation in response to arachadonic acid administration,[1],reduced inflammation
same,reducing body weight and food consumption,[2],particularly effective at reducing body weight and food consumption
same,body weight relative to control,[2],significant differences
CCCOc1ccc(C2C(CNC3CCCCC3)c3ccccc3CN2CCCCC(CN)NC)cc1 (stereo not shown) [TRG 2405-253],EC50,MCR-5,> 50 µM
same,inhibition of arachidonic acid induced dermal inflammation,[1]; [3],inhibition of arachidonic acid induced dermal inflammation
same,inflammation in response to arachadonic acid administration,[1],reduced inflammation
same,reducing body weight and food consumption,[2],particularly effective at reducing body weight and food consumption
same,body weight relative to control,[2],significant differences
CNC(CN)CCCCN1Cc2ccccc2C(CNC2CCCCC2)C1c1ccc2cccc(O)c2n1 (stereo not shown) [TRG 2405-262],EC50,MCR-5,> 50 µM
CNC(CN)CCCCN1Cc2ccccc2C(CN)C1c1ccc(Cl)cc1Cl (stereo not shown) [TRG 2407-39],IC50,"MCR-4; TRG 2406 and TRG 2407 libraries, inhibition of binding of 125I-HP 467",0.11 µM
CCNc1ccc(C2C(CNC3CCCCC3)c3ccccc3CN2CCCCC(CN)NC)cc1 (stereo not shown) [TRG 2408-30],IC50,MCR-4; [4],45.6 µM
CCNc1ccc(C2C(CNCc3ccccc3O)c3ccccc3CN2CCCC(CN)NCCc2ccccc2)cc1 (stereo not shown) [TRG 2408-57],IC50,MCR-4; [4],6.02 µM
CCNc1ccc(C2C(CNC3CCCCC3)c3ccccc3CN2CCCC(CN)NCCc2ccccc2)cc1 (stereo not shown) [TRG 2408-62],IC50,MCR-4; [4],2.61 µM
CCCCNc1ccc(C2C(CNCc3ccccc3O)c3ccccc3CN2CCCCC(CN)NC)cc1 (stereo not shown) [TRG 2409-2],reduction in the level of arachidonic acid-induced dermal inflammation,[1]; HP 228 100 μg/mouse,dose dependent reduction in the level of arachidonic acid-induced dermal inflammation
same,inflammation in response to arachadonic acid administration,[1],reduced inflammation
same,IC50,MCR-4; [5],10.7 µM
CCCCNc1ccc(C2C(CNC3CCCCC3)c3ccccc3CN2CCCCC(CN)NC)cc1 (stereo not shown) [TRG 2409-14],reduction in the level of arachidonic acid-induced dermal inflammation,[1]; HP 228 100 μg/mouse,decreased dermal inflammation to a lesser extent than TRG 2409-2
same,inflammation in response to arachadonic acid administration,[1],reduced inflammation
same,IC50,MCR-4; [5],15.1 µM
